According to US11572399B2, “Long-acting GIP peptide analogues” (University of Copenhagen, priority 2017, dated 2023):
Peptide text beside a SMILES is read from it. * marks the point of attachment. C16 diacid = O=C(O)CCCCCCCCCCCCCCC(=O)*

Biological target: T1, human GIP receptor (Homo sapiens, UniProt P48546)
T1 construct: host or cells: COS-7, transient transfection (calcium phosphate), cDNA in pCMV-Script
T1 sequence (P48546 22-466): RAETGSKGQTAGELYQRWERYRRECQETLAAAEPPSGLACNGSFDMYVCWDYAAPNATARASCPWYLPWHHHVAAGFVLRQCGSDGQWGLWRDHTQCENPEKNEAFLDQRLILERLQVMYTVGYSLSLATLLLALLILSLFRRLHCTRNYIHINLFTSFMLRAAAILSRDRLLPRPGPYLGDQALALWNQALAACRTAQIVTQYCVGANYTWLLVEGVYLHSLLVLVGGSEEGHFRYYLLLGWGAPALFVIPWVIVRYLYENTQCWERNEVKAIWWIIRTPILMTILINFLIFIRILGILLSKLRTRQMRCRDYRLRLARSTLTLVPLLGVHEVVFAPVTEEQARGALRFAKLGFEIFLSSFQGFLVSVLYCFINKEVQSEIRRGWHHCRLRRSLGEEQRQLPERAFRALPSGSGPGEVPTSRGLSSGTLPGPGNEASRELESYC
Assay: cAMP accumulation assay, agonism (ligand alone)
Assay type: cell-based
Details: COS-7 cells, Table 1; for Emax: COS-7, intrinsic cAMP activity; for EC50: read-out: cAMP agonism nM (EC50)
Description: COS-7 cells were cultured at 10% CO2 and 37° C. in Dulbecco's modified Eagle's medium 1885 supplemented with 10% fetal bovine serum, 2 mM glutamine, 180 units/ml penicillin, and 45 µg/ml streptomycin. Transient transfection of the COS-7 cells for cAMP accumulation and competition binding was performed using the calcium phosphate precipitation method with the addition of chloroquine^46-47.
Transient transfected COS-7 cells expressing the human GIP receptor were seeded in white 96-well plates with a density of 3.5*10^4/well. The day after, the cells were washed twice with Hepes buffered saline (HBS) buffer and incubated with HBS and 1 mM 3-isobutyl-1-methylxanthine (IBMX) for 30 min at 37° C. To test for agonistic properties, ligands were added and incubated for 30 min at 37° C. In order to test for antagonistic properties, the cells were preincubated with the antagonists for 10 min prior to the addition of the agonist and subsequent incubated for 20 additional min. The HitHunter™ cAMP XS assay (DiscoveRx) was carried out according to the manufacturer's instructions.
IC50, EC50, and Ki values were determined by nonlinear regression. These were carried out with the GraphPad Prism 6.0 software (GraphPad, San Diego, Calif., USA) and Microsoft Excel™. Ki values were based on the formula for one class of binding sites in homologous competition binding studies and the Cheng Prussoffs formula, respectively (DeBlasi et al., 1989). To determine the HSA binding potential, the fold change in affinity (as determined by IC50) was calculated as IC50 (plus HSA)/IC50 (minus HSA).

SMILES	Emax [%]	cAMP agonism Emax (intrinsic cAMP activity)	EC50 [nM]
CC[C@H](C)[C@H](NC(=O)[C@H](CO)NC(=O)[C@H](Cc1ccc(O)cc1)NC(=O)[C@H](CC(=O)O)NC(=O)[C@H](CO)NC(=O)[C@@H](NC(=O)[C@H](Cc1ccccc1)NC(=O)[C@@H](NC(=O)CNC(=O)[C@@H](N)CCC(=O)O)[C@@H](C)O)[C@@H](C)CC)C(=O)N[C@@H](C)C(=O)N[C@@H](CCSC)C(=O)N[C@@H](CC(=O)O)C(=O)N[C@@H](CCCCN)C(=O)N[C@H](C(=O)N[C@@H](Cc1c[nH]cn1)C(=O)N[C@@H](CCCCNC(=O)CCCCCCCCCCCCCCC(=O)O)C(=O)N[C@@H](CCC(N)=O)C(=O)N[C@@H](CC(=O)O)C(=O)N[C@@H](Cc1ccccc1)C(=O)N[C@H](C(=O)N[C@@H](CC(N)=O)C(=O)N[C@@H](Cc1c[nH]c2ccccc12)C(=O)N[C@@H](CC(C)C)C(=O)N[C@@H](CC(C)C)C(=O)N[C@@H](C)C(=O)N[C@@H](CCC(N)=O)C(=O)N[C@@H](CCCCN)C(N)=O)C(C)C)[C@@H](C)CC [AT308, [hGIP(3-30)NH2[Q19K]-C16diacid/19]] (H-EGTFISDYSIAMDKIHK(C16 diacid)QDFVNWLLAQK-NH2; N-terminus assumed)	7.9	–	–
CC[C@H](C)[C@H](NC(=O)[C@H](CO)NC(=O)[C@H](Cc1ccc(O)cc1)NC(=O)[C@H](CC(=O)O)NC(=O)[C@H](CO)NC(=O)[C@@H](NC(=O)[C@H](Cc1ccccc1)NC(=O)[C@@H](NC(=O)CNC(=O)[C@@H](N)CCC(=O)O)[C@@H](C)O)[C@@H](C)CC)C(=O)N[C@@H](C)C(=O)N[C@@H](CCSC)C(=O)N[C@@H](CC(=O)O)C(=O)N[C@@H](CCCCN)C(=O)N[C@H](C(=O)N[C@@H](Cc1c[nH]cn1)C(=O)N[C@@H](CCC(N)=O)C(=O)N[C@@H](CCCCNC(=O)CCCCCCCCCCCCCCC(=O)O)C(=O)N[C@@H](CC(=O)O)C(=O)N[C@@H](Cc1ccccc1)C(=O)N[C@H](C(=O)N[C@@H](CC(N)=O)C(=O)N[C@@H](Cc1c[nH]c2ccccc12)C(=O)N[C@@H](CC(C)C)C(=O)N[C@@H](CC(C)C)C(=O)N[C@@H](C)C(=O)N[C@@H](CCC(N)=O)C(=O)N[C@@H](CCCCN)C(N)=O)C(C)C)[C@@H](C)CC [AT309, [hGIP(3-30)NH2[Q20K]-C16diacid/20]] (H-EGTFISDYSIAMDKIHQK(C16 diacid)DFVNWLLAQK-NH2; N-terminus assumed)	–	no ag.	–
CC[C@H](C)[C@H](NC(=O)[C@H](CO)NC(=O)[C@H](Cc1ccc(O)cc1)NC(=O)[C@H](CC(=O)O)NC(=O)[C@H](CO)NC(=O)[C@@H](NC(=O)[C@H](Cc1ccccc1)NC(=O)[C@@H](NC(=O)CNC(=O)[C@@H](N)CCC(=O)O)[C@@H](C)O)[C@@H](C)CC)C(=O)N[C@@H](C)C(=O)N[C@@H](CCSC)C(=O)N[C@@H](CC(=O)O)C(=O)N[C@@H](CCCCN)C(=O)N[C@H](C(=O)N[C@@H](Cc1c[nH]cn1)C(=O)N[C@@H](CCC(N)=O)C(=O)N[C@@H](CCC(N)=O)C(=O)N[C@@H](CC(=O)O)C(=O)N[C@@H](CCCCNC(=O)CCCCCCCCCCCCCCC(=O)O)C(=O)N[C@H](C(=O)N[C@@H](CC(N)=O)C(=O)N[C@@H](Cc1c[nH]c2ccccc12)C(=O)N[C@@H](CC(C)C)C(=O)N[C@@H](CC(C)C)C(=O)N[C@@H](C)C(=O)N[C@@H](CCC(N)=O)C(=O)N[C@@H](CCCCN)C(N)=O)C(C)C)[C@@H](C)CC [AT311, [hGIP(3-30)NH2[F22K]-C16diacid/22]] (H-EGTFISDYSIAMDKIHQQDK(C16 diacid)VNWLLAQK-NH2; N-terminus assumed)	17.5	–	–
CC[C@H](C)[C@H](NC(=O)[C@H](CO)NC(=O)[C@H](Cc1ccc(O)cc1)NC(=O)[C@H](CC(=O)O)NC(=O)[C@H](CO)NC(=O)[C@@H](NC(=O)[C@H](Cc1ccccc1)NC(=O)[C@@H](NC(=O)CNC(=O)[C@@H](N)CCC(=O)O)[C@@H](C)O)[C@@H](C)CC)C(=O)N[C@@H](C)C(=O)N[C@@H](CCSC)C(=O)N[C@@H](CC(=O)O)C(=O)N[C@@H](CCCCN)C(=O)N[C@H](C(=O)N[C@@H](Cc1c[nH]cn1)C(=O)N[C@@H](CCC(N)=O)C(=O)N[C@@H](CCC(N)=O)C(=O)N[C@@H](CC(=O)O)C(=O)N[C@@H](Cc1ccccc1)C(=O)N[C@@H](CCCCNC(=O)CCCCCCCCCCCCCCC(=O)O)C(=O)N[C@@H](CC(N)=O)C(=O)N[C@@H](Cc1c[nH]c2ccccc12)C(=O)N[C@@H](CC(C)C)C(=O)N[C@@H](CC(C)C)C(=O)N[C@@H](C)C(=O)N[C@@H](CCC(N)=O)C(=O)N[C@@H](CCCCN)C(N)=O)[C@@H](C)CC [AT312, [hGIP(3-30)NH2[V23K]-C16diacid/23]] (H-EGTFISDYSIAMDKIHQQDFK(C16 diacid)NWLLAQK-NH2; N-terminus assumed)	54	–	–
CC[C@H](C)[C@H](NC(=O)[C@H](CO)NC(=O)[C@H](Cc1ccc(O)cc1)NC(=O)[C@H](CC(=O)O)NC(=O)[C@H](CO)NC(=O)[C@@H](NC(=O)[C@H](Cc1ccccc1)NC(=O)[C@@H](NC(=O)CNC(=O)[C@@H](N)CCC(=O)O)[C@@H](C)O)[C@@H](C)CC)C(=O)N[C@@H](C)C(=O)N[C@@H](CCSC)C(=O)N[C@@H](CC(=O)O)C(=O)N[C@@H](CCCCN)C(=O)N[C@H](C(=O)N[C@@H](Cc1c[nH]cn1)C(=O)N[C@@H](CCC(N)=O)C(=O)N[C@@H](CCC(N)=O)C(=O)N[C@@H](CC(=O)O)C(=O)N[C@@H](Cc1ccccc1)C(=O)N[C@H](C(=O)N[C@@H](CCCCNC(=O)CCCCCCCCCCCCCCC(=O)O)C(=O)N[C@@H](Cc1c[nH]c2ccccc12)C(=O)N[C@@H](CC(C)C)C(=O)N[C@@H](CC(C)C)C(=O)N[C@@H](C)C(=O)N[C@@H](CCC(N)=O)C(=O)N[C@@H](CCCCN)C(N)=O)C(C)C)[C@@H](C)CC [AT313, [hGIP(3-30)NH2[N24K]-C16diacid/24]] (H-EGTFISDYSIAMDKIHQQDFVK(C16 diacid)WLLAQK-NH2; N-terminus assumed)	7.2	–	–
CC[C@H](C)[C@H](NC(=O)[C@H](CO)NC(=O)[C@H](Cc1ccc(O)cc1)NC(=O)[C@H](CC(=O)O)NC(=O)[C@H](CO)NC(=O)[C@@H](NC(=O)[C@H](Cc1ccccc1)NC(=O)[C@@H](NC(=O)CNC(=O)[C@@H](N)CCC(=O)O)[C@@H](C)O)[C@@H](C)CC)C(=O)N[C@@H](C)C(=O)N[C@@H](CCSC)C(=O)N[C@@H](CC(=O)O)C(=O)N[C@@H](CCCCN)C(=O)N[C@H](C(=O)N[C@@H](Cc1c[nH]cn1)C(=O)N[C@@H](CCC(N)=O)C(=O)N[C@@H](CCC(N)=O)C(=O)N[C@@H](CC(=O)O)C(=O)N[C@@H](Cc1ccccc1)C(=O)N[C@H](C(=O)N[C@@H](CC(N)=O)C(=O)N[C@@H](CCCCNC(=O)CCCCCCCCCCCCCCC(=O)O)C(=O)N[C@@H](CC(C)C)C(=O)N[C@@H](CC(C)C)C(=O)N[C@@H](C)C(=O)N[C@@H](CCC(N)=O)C(=O)N[C@@H](CCCCN)C(N)=O)C(C)C)[C@@H](C)CC [AT314, [hGIP(3-30)NH2[W25K]-C16diacid/25]] (H-EGTFISDYSIAMDKIHQQDFVNK(C16 diacid)LLAQK-NH2; N-terminus assumed)	28.4	–	62
CC[C@H](C)[C@H](NC(=O)[C@H](CO)NC(=O)[C@H](Cc1ccc(O)cc1)NC(=O)[C@H](CC(=O)O)NC(=O)[C@H](CO)NC(=O)[C@@H](NC(=O)[C@H](Cc1ccccc1)NC(=O)[C@@H](NC(=O)CNC(=O)[C@@H](N)CCC(=O)O)[C@@H](C)O)[C@@H](C)CC)C(=O)N[C@@H](C)C(=O)N[C@@H](CCSC)C(=O)N[C@@H](CC(=O)O)C(=O)N[C@@H](CCCCN)C(=O)N[C@H](C(=O)N[C@@H](Cc1c[nH]cn1)C(=O)N[C@@H](CCC(N)=O)C(=O)N[C@@H](CCC(N)=O)C(=O)N[C@@H](CC(=O)O)C(=O)N[C@@H](Cc1ccccc1)C(=O)N[C@H](C(=O)N[C@@H](CC(N)=O)C(=O)N[C@@H](Cc1c[nH]c2ccccc12)C(=O)N[C@@H](CCCCNC(=O)CCCCCCCCCCCCCCC(=O)O)C(=O)N[C@@H](CC(C)C)C(=O)N[C@@H](C)C(=O)N[C@@H](CCC(N)=O)C(=O)N[C@@H](CCCCN)C(N)=O)C(C)C)[C@@H](C)CC [AT315, [hGIP(3-30)NH2[L26K]-C16diacid/26]] (H-EGTFISDYSIAMDKIHQQDFVNWK(C16 diacid)LAQK-NH2; N-terminus assumed)	5.9	–	183
